Measured values as given in patent publication US20260248969A1, “PEPTIDE MULTIMER PRODUCTS AND METHODS” (REGENTS OF THE UNIVERSITY OF MICHIGAN, priority 2023, published 2026).
Residues, ends and D or L forms follow the SMILES beside them. No end group written: not given here. *: point of attachment. IRDye800CW = CC1(C)C(/C=C/C2=C(Oc3ccc(S(=O)(=O)O)cc3)C(=C/C=C3/N(CCCCS(=O)(=O)O)c4ccc(S(=O)(=O)O)cc4C3(C)C)/CCC2)=[N+](CCCCCC(=O)*)c2ccc(S(=O)(=O)[O-])cc21

How the values were obtained:
[1] = test system: CD44; experiment: Co-localization of peptide monomer and anti-CD44-AF488 binding to SK-Hep1 cells; conditions: SK-Hep1 human HCC cells
Method: Specific binding of the optimized IRDye800-labeled […] monomer peptide was substantiated using a co-localization of binding to known antibodies. Human Hep3B, HepG2, and Sk-Hep1 HCC cells that overexpress early-stage HCC targets were used. A Pearson's correlation coefficient ρ was calculated from fluorescence intensities on merged images. Measurements were made from n=10 cells chosen randomly from 3 slides. Data for CD44 is shown in FIG. 4A, and similar data was obtained for GPC3 and EpCAM. As shown in the figure, binding by WKG*-IRDye800 and anti-CD44-AF488 to the surface (arrows) of Sk-Hep1 cells co-localized with a correlation of p=0.81 measured on the merged image.

[2] = test system: CD44; experiment: Apparent dissociation constant by flow cytometry on SK-Hep1 cells; assay type: binding, human; conditions: 0-200 nM, R^2=0.99
Method: The equilibrium dissociation constant kd=1/ka was calculated by performing using a least square fit of the data to the non-linear equation I=(I0+Imaxka[X])/(I0+ka[X]). I0 and Imax are the initial and maximum fluorescence intensities, corresponding to no peptide and at saturation, respectively, and [X] represents the concentration of the bound peptide. Results are the mean values from 3 independent experiments.
The apparent dissociation constant (kd) of the IRDye800-labeled WKG* peptide monomer was measured to provide an estimate of binding affinity. The IRDye800-labeled monomer was incubated with human HCC cells over a range of concentrations. Fluorescence intensities were measured with flow cytometry. WKG*-IRDye800 was incubated with SK-Hep1 cells over concentrations ranging from 0-200 nM, and the fluorescence intensity was measured with flow cytometry.

[3] = mouse, in vivo, iv
Method: C) Serum stability of WKG*-IRDye800 (200 μM in 200 μL of PBS) in mice (n=5) was measured following intravenous injection. Serum was collected at various time points from 0-24 hours post-injection.
The optimized WKG* monomer labeled with IRDye800 was incubated in serum to determine half-life T1/2. Stability in mouse serum over time was measured using analytical RP-HPLC. The relative concentration was calculated from the area-under-the-peak, and the intensities were fit to a first order kinetic model, and the serum half-life T1/2 was determined.

[4] = test system: orthotopic HCC PDX tumors; experiment: In vivo whole body NIR fluorescence imaging of orthotopic HCC PDX tumors; set-up: species or system mouse; conditions: P<1×10^−4 by paired t-test
Method: (§1) In vivo imaging was performed to assess HCC tumor uptake, biodistribution, and clearance of the optimized multimer. […] The target-to-background (T/B) ratio for the multimer was ~1.8-fold greater than that for monomer and free Gd-DOTA from the same tumor in n=3 animals. The target region was segmented using the Chan-Vese algorithm. The background region was defined by dilating the target region. Clearance of the MR signal occurred after ~4 hours post-injection. Data from whole body NIR fluorescence images collected in vivo from the orthotopic HCC tumor following intravenous injection of the lead candidate EpCAM target and control peptides is shown in FIG. 6C. […] For the differences and variances shown in FIG. 60, the power is >95% to obtain P<0.01 for target versus control using n=8 mice per group.

[5] = test system: orthotopic HCC PDX tumors; experiment: In vivo MR imaging of tumor uptake, orthotopic HCC PDX model; set-up: species or system mouse; conditions: peak uptake 0.5 hours post-injection, same tumor in n=3 mice
Method: as §1
In vivo tumor uptake of the peptide multimer was evaluated in an orthotopic HCC PDX mouse model using T1-weighted MR images. The Gd-DOTA labeled peptide multimer and peptide monomers specific for GPC3, CD44, and EpCAM were intravenously injected at a concentration of 300 μM in 200 μL of PBS via the tail vein of mice bearing orthotopic PDX tumors, FIG. 13A-E. Gd-DOTA (300 μM in 200 μL PBS) was also intravenously injected as a control. T1-weighted MR images were acquired using a 7T horizontal bore small animal magnet (SGRAD 205/120/HD/S, Agilent Technologies). […]

[6] = target: T1, CD44 (cluster of differentiation 44) (human, UniProt P16070 21-742); experiment: flow cytometry, labeled peptide 0-200 nM on SK-Hep1 human HCC cells; apparent dissociation constant
T1 construct: whole, on cells; Endogenous target on human HCC cells and tissues; no recombinant protein was used
Method: A) WKG*-IRDye800 and anti-CD44-AF488 bind intensely to the surface (arrows) of SK-Hep1 human HCC cells. A Pearson's correlation coefficient of r=0.81 was measured from the merged image. […] B) An apparent dissociation constant of kd=43 nM, R²=0.99, was measured for WKG*-IRDye800 binding to SK-Hep1 cells. The equilibrium dissociation constant kd=1/kₐ was calculated by performing using a least square fit of the data to the non-linear equation […]. I₀ and Iₘₐₓ are the initial and maximum fluorescence intensities, corresponding to no peptide and at saturation, respectively, and [X] represents the concentration of the bound peptide. Results are the mean values from 3 independent experiments. C) Serum stability of WKG*-IRDye800 (200 μM in 200 μL of PBS) in mice (n=5) was measured following intravenous injection. […] The fluorescence intensity I(t) was measured and fit to a first-order kinetics model I(t)=Iₒ+A×exp(−Bt), and a serum half-life of T_{1/2}=5.1 hours was calculated.
The apparent dissociation constant (kd) of the IRDye800-labeled WKG* peptide monomer was measured to provide an estimate of binding affinity. […] Fluorescence intensities were measured with flow cytometry. WKG*-IRDye800 was incubated with SK-Hep1 cells over concentrations ranging from 0-200 nM, and the fluorescence intensity was measured with flow cytometry. […]

[7] = target: T2, Epithelial cell adhesion molecule (EpCAM) (human, UniProt P16422 24-314); experiment: fluorescence microscopy, 5 uM on CCA-156 cells
T2 construct: whole, on cells; Endogenous target on human HCC cells and tissues
T2 sequence (looked up): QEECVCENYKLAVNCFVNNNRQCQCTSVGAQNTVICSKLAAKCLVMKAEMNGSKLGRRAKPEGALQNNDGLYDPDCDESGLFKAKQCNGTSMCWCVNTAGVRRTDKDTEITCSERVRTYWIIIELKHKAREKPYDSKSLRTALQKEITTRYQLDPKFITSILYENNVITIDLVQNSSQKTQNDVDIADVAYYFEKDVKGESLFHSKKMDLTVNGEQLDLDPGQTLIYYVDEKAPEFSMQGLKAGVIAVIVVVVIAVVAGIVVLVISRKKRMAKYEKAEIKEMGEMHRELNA
Method: (§2) Approximately 10³ CCA-156 cells were grown on the cover glass in a 24-well plate to ~90% confluence. The cells were washed with PBS twice and incubated with 5 μM of either Cy5.5-labeled peptide multimer or peptide monomer for 5 min on ice. The cells were then washed with PBS for 3X, fixed with 4% paraformaldehyde (PFA) in PBS for 15 min, washed with PBS for twice, then mounted on glass slides with ProLong Gold reagent containing DAPI (Invitrogen).

[8] = target: T1, CD44 (cluster of differentiation 44); experiment: quantified fluorescence on CCA-156 cells, 5 uM; multimer signal comes from cells that carry GPC3, CD44 and EpCAM
Method: as §2

[9] = target: T3, Glypican-3 (GPC3) (human, UniProt P51654 25-554); experiment: as above
T3 construct: whole, on cells; Endogenous target on human HCC cells and tissues
Method: as §2

[10] = target: T2, Epithelial cell adhesion molecule …; experiment: as above
Method: as §2

T1 sequence (P16070 21-742): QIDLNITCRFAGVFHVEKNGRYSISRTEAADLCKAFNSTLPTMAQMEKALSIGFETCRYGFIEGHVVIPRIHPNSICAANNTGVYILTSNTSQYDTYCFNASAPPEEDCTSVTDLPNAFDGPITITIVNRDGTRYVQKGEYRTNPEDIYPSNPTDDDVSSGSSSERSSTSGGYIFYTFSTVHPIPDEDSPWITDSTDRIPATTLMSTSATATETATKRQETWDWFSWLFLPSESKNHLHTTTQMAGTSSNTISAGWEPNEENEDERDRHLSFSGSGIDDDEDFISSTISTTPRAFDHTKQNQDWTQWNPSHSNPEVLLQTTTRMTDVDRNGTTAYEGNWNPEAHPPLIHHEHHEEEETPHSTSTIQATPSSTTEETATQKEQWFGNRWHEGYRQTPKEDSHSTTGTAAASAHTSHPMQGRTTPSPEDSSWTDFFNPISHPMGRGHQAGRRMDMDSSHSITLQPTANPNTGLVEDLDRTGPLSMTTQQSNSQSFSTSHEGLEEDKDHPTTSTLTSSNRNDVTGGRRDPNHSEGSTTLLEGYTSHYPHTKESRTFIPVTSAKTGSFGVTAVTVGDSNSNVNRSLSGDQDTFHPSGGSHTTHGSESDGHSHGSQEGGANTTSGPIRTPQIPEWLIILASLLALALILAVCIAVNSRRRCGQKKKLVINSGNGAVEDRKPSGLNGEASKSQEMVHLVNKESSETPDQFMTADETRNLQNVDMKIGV
T3 sequence (P51654 25-554 limits assumed): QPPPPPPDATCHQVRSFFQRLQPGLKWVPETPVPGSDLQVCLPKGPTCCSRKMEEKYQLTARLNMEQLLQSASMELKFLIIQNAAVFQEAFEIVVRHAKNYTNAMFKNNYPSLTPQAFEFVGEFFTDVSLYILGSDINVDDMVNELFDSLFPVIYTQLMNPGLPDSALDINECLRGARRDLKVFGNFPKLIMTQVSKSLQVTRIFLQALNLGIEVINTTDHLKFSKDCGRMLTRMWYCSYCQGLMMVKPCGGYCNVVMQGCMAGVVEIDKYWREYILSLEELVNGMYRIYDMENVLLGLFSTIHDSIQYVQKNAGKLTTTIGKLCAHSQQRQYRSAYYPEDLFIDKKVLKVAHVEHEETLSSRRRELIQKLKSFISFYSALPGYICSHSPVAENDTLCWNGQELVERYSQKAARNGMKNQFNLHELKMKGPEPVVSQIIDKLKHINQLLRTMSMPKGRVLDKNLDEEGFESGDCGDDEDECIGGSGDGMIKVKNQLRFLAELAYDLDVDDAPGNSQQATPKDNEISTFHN

With `CC(C)C[C@H](NC(=O)[C@H](Cc1ccc(O)cc1)NC(=O)[C@H](CO)NC(=O)[C@H](Cc1c[nH]c2ccccc12)NC(=O)CNC(=O)[C@H](CCCCN)NC(=O)[C@@H](N)Cc1c[nH]c2ccccc12)C(=O)N[C@@H](Cc1c[nH]c2ccccc12)C(=O)N[C@H](C(=O)N[C@@H](CCC(N)=O)C(=O)N[C@@H](CCC(N)=O)C(=O)N[C@@H](C)C(=O)NCC(=O)NCC(=O)NCC(=O)N[C@@H](CO)C(=O)N[C@@H](CCCCNC(=O)CCCCCN1C(=CC=C2CCCC(C=CC3=[N+](CCCCS(=O)(=O)[O-])c4ccc(S(=O)(=O)O)cc4C3(C)C)=C2Oc2ccc(S(=O)(=O)O)cc2)C(C)(C)c2cc(S(=O)(=O)O)ccc21)C(N)=O)[C@@H](C)O` [WKG*-IRDye800] (H-WKGWSYLWTQQAGGGSK(IRDye800CW)-NH2) the “binding to the surface of SK-Hep1 cells” value [1] was “bind intensely”, the “Pearson's correlation coefficient, peptide and anti-CD44-AF488” value ([1]; merged image) was 0.81 and the Kd [2] was 0.043 µM. It also gave a half-life [3] of 5.1 h.

For “HPD*-IRDye800: lead EpCAM peptide HPDMFTRTHSHN (SEQ ID NO: 7) labeled with IRDye800 (also: IRDye800 label, site not given here)”, the “NIR fluorescence intensity versus control PFH*-IRDye800” value [4] was “significantly greater”.

Work on `O=C([O-])CN1CCN(CC(=O)[O-])CCN(CC(=O)O)CCN(CC(=O)[O-])CC1.[Gd+3]` [free Gd-DOTA, Gd-DOTA] yielded a T/B ratio [5] of 0.99±0.04.

B1: WKG*-IRDye800 (IRDye800-labeled WKG* peptide monomer, WKGWSYLWTQQA) (peptide)
peptide: WKGWSYLWTQQA
modifications: also: IRDye800 label, site not given here
notes: also called IRDye800-labeled WKD* monomer peptide
B1 gave a Kd [6] of 0.043 µM.

HPDMFTRTHSHN (also: Cy5.5 label, site and linker not given here) [HPD*-Cy5.5 (Cy5.5-labeled EpCAM peptide monomer, HPDMFTRTHSHN)]: binds [7].

B2: Cy5.5-labeled peptide multimer (ALL*, WKG* and HPD* on a tri-lysine linker) (designed binder)
peptide 1: ALLANHEELFQT
peptide 2: WKGWSYLWTQQA
peptide 3: HPDMFTRTHSHN
modifications: also: each peptide joined through PEG3 extension to a tri-lysine linker, Cy5.5 label, site not given here
notes: also called Cy5.5-labeled multimer; not shown: The branched tri-lysine linker with PEG3 extensions and the Cy5.5 label
In the case of B2, the “fold increase of fluorescence intensity versus the CD44 monomer WKG*-Cy5.5” value [8] is reported as 1.84 fold, the “fold increase of fluorescence intensity versus the GPC3 monomer ALL*-Cy5.5” value [9] is reported as 5.48 fold and the “fold increase of fluorescence intensity versus the EpCAM monomer HPD*-Cy5.5” value [10] is reported as 2 fold.
